Literature values in patent publication US20250099481A1, “BCL-2 INHIBITORS” (Newave Pharmaceutical Inc., priority 2022, published 2025).
pEC50, pIC50, pKi: −log10 of the molar value. One block for each molecule: values may come before it.

Legend:
H345 xenograft = settings: 100 mg/kg/day, H345 xenograft model
Bcl-w = target: T1, Bcl-w (Homo sapiens, UniProt Q92843)
T1 sequence (Q92843 1-193): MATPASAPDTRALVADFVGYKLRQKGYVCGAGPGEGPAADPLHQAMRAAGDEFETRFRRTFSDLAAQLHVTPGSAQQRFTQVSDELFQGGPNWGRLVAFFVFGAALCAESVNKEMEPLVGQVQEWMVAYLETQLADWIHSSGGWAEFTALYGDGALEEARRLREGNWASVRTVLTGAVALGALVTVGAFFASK

[1] = test system: xenograft models of small-cell lung cancer and acute lymphoblastic leukemia; settings: oral administration alone
[2] = in vivo
[3] = test system: DoHH2, Granta-519 xenografts; settings: single agent or in combination with Bendamustine and other agents
[4] = test system: CLL who have 17p deletion; settings: Human Phase I and II data, CLL with 17p deletion
RS4;11 xenografts = settings: single dose of 100 mg/kg
CLL = settings: read-out: average EC50, apoptosis

- pKi (Bcl-w): 9.00
- pIC50 (SCLC H146 cell line): 6.96
Molecule: CC1(C)CCC(c2ccc(Cl)cc2)=C(CN2CCN(c3ccc(C(=O)NS(=O)(=O)c4ccc(N[C@H](CCN5CCOCC5)CSc5ccccc5)c(S(=O)(=O)C(F)(F)F)c4)cc3)CC2)C1 [ABT-263]
- TGI (H345 xenograft): 80%
- treated tumors indicating at least a 50% reduction in tumor volume (H345 xenograft): 20%
- number of circulating platelets (circulating platelets; clinical trial, inhibition of BCL-XL): rapid, concentration-dependent decrease in the number of circulating platelets
- dose-limiting toxicity (circulating platelets; single-agent treatment in patients): thrombocytopenia is the dose-limiting toxicity
- tumor response [1]: complete tumor regressions

- oral bioavailability [2]: not orally bioavailable
- aqueous solubility: low aqueous solubility
Molecule: CN(C)CC[C@H](CSc1ccccc1)Nc1ccc(S(=O)(=O)NC(=O)c2ccc(N3CCN(Cc4ccccc4-c4ccc(Cl)cc4)CC3)cc2)cc1[N+](=O)[O-] [ABT-737]
- efficacy in animal models (established tumors): improves survival, causes regression of established tumors, and produces cures in a high percentage of the mice

Molecule: ABT-199
- xenograft growth [3]: inhibits xenograft growth
- clinical efficacy [4]: highly efficacious
- maximal tumor growth inhibition (RS4;11 xenografts): 95%
- tumor growth delay (RS4;11 xenografts): 152%
- pEC50 (RS4;11 cells): 8.10
- apoptosis induction (RS4;11 cells; cytochrome c release, caspase activation, accumulation of sub-G0/G1 DNA): induces a rapid apoptosis
- pEC50 (CLL): 8.52
